Source: the supplement of paper PMC10307832

Experiments:
Assay in all cases: relative viability (nuclei count vs DMSO), 5 days (fraction); higher = more cells survive
Gemcitabine = compound: Nc1ccn([C@@H]2O[C@H](CO)[C@@H](O)C2(F)F)c(=O)n1 [Gemcitabine]
Procedure, shortened: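 Five library-drug doses, separated by factors of √10, were pinned into 1536-well plates holding lung cancer cell lines after an overnight stay at 37 °C. Cells were fixed, permeabilised and Hoechst-stained in one step after 5 days without medium change, then imaged at 4×. Viability compares treated-well with vehicle-well nuclei, counted in MetaXpress, as a median across plates. Passing plates had control CV below 25% and at least one doubling.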

Gemcitabine + Tozasertib = compound: Nc1ccn([C@@H]2O[C@H](CO)[C@@H](O)C2(F)F)c(=O)n1 [Gemcitabine] + Cc1cc(Nc2cc(N3CCN(C)CC3)nc(Sc3ccc(NC(=O)C4CC4)cc3)n2)n[nH]1 [Tozasertib] (partner 0.1 µM)
Procedure, shortened: (§1)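 Medians of duplicate plates are given as relative viability. That measure is the nuclei count in treated wells divided by the count in vehicle wells. Counts were taken on 4× images of lung cancer cell lines in 1536-well plates, 5 days after pin-tool dosing the day after seeding with one drug alone or a fixed anchor-drug dose plus five library-drug doses (not always all listed) in √10 steps.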

Gemcitabine + Foretinib = compound: Nc1ccn([C@@H]2O[C@H](CO)[C@@H](O)C2(F)F)c(=O)n1 [Gemcitabine] + COc1cc2c(Oc3ccc(NC(=O)C4(C(=O)Nc5ccc(F)cc5)CC4)cc3F)ccnc2cc1OCCCN1CCOCC1 [Foretinib] (partner 0.25 µM)
Procedure, shortened: as §1

Gemcitabine + Pemetrexed = compound: Nc1ccn([C@@H]2O[C@H](CO)[C@@H](O)C2(F)F)c(=O)n1 [Gemcitabine] + Nc1nc2[nH]cc(CCc3ccc(C(=O)N[C@@H](CCC(=O)O)C(=O)O)cc3)c2c(=O)[nH]1 [Pemetrexed] (partner 0.2 µM)
Procedure, shortened: as §1

[1] = compound: Nc1ccn([C@@H]2O[C@H](CO)[C@@H](O)C2(F)F)c(=O)n1 [Gemcitabine] + CC(=O)c1c(C)c2cnc(Nc3ccc(N4CCNCC4)cn3)nc2n(C2CCCC2)c1=O [Palbociclib] (partner 0.5 µM)
Procedure, shortened: as §1

Gemcitabine + Dasatinib = compound: Nc1ccn([C@@H]2O[C@H](CO)[C@@H](O)C2(F)F)c(=O)n1 [Gemcitabine] + Cc1nc(Nc2ncc(C(=O)Nc3c(C)cccc3Cl)s2)cc(N2CCN(CCO)CC2)n1 [Dasatinib] (partner 0.075 µM)
Procedure, shortened: as §1

Gemcitabine + Olaparib = compound: Nc1ccn([C@@H]2O[C@H](CO)[C@@H](O)C2(F)F)c(=O)n1 [Gemcitabine] + O=C(c1cc(Cc2n[nH]c(=O)c3ccccc23)ccc1F)N1CCN(C(=O)C2CC2)CC1 [Olaparib] (partner 8 µM)
Procedure, shortened: as §1

Gemcitabine + Luminespib = compound: Nc1ccn([C@@H]2O[C@H](CO)[C@@H](O)C2(F)F)c(=O)n1 [Gemcitabine] + CCNC(=O)c1noc(-c2cc(C(C)C)c(O)cc2O)c1-c1ccc(CN2CCOCC2)cc1 [Luminespib] (partner 0.01 µM)
Procedure, shortened: as §1

Gemcitabine + Decitabine = compound: Nc1ccn([C@@H]2O[C@H](CO)[C@@H](O)C2(F)F)c(=O)n1 [Gemcitabine] + Nc1ncn([C@H]2C[C@H](O)[C@@H](CO)O2)c(=O)n1 [Decitabine] (partner 2 µM)
Procedure, shortened: as §1

Gemcitabine + OSI-027 = compound: Nc1ccn([C@@H]2O[C@H](CO)[C@@H](O)C2(F)F)c(=O)n1 [Gemcitabine] + COc1cccc2cc(-c3nc([C@H]4CC[C@H](C(=O)O)CC4)n4ncnc(N)c34)[nH]c12 [OSI-027] (partner 0.5 µM)
Procedure, shortened: as §1

Gemcitabine + Phenformin = compound: Nc1ccn([C@@H]2O[C@H](CO)[C@@H](O)C2(F)F)c(=O)n1 [Gemcitabine] + N=C(N)NC(=N)NCCc1ccccc1 [Phenformin] (partner 250 µM)
Procedure, shortened: as §1

Gemcitabine + AZD7762 = compound: Nc1ccn([C@@H]2O[C@H](CO)[C@@H](O)C2(F)F)c(=O)n1 [Gemcitabine] + NC(=O)Nc1cc(-c2cccc(F)c2)sc1C(=O)N[C@H]1CCCNC1 [AZD7762] (partner 0.2 µM)
Procedure, shortened: as §1

Gemcitabine + Vorinostat = compound: Nc1ccn([C@@H]2O[C@H](CO)[C@@H](O)C2(F)F)c(=O)n1 [Gemcitabine] + O=C(CCCCCCC(=O)Nc1ccccc1)NO [Vorinostat] (partner 1 µM)
Procedure, shortened: as §1

Gemcitabine + Trametinib = compound: Nc1ccn([C@@H]2O[C@H](CO)[C@@H](O)C2(F)F)c(=O)n1 [Gemcitabine] + CC(=O)Nc1cccc(-n2c(=O)n(C3CC3)c(=O)c3c(Nc4ccc(I)cc4F)n(C)c(=O)c(C)c32)c1 [Trametinib] (partner 0.02 µM)
Procedure, shortened: as §1

NCI-H2342
relative viability (Gemcitabine; 0.001 µM): 0.922 | relative viability (Gemcitabine; 0.003162 µM): 0.972 | relative viability (Gemcitabine; 0.01 µM): 0.777 | relative viability (Gemcitabine; 0.03162 µM): 0.438 | relative viability (Gemcitabine; 0.1 µM): 0.305 | relative viability (Gemcitabine + Tozasertib; first compound 0.001 µM): 0.456 | relative viability (Gemcitabine + Tozasertib; first compound 0.003162 µM): 0.451 | relative viability (Gemcitabine + Tozasertib; first compound 0.01 µM): 0.427 | relative viability (Gemcitabine + Tozasertib; first compound 0.03162 µM): 0.279 | relative viability (Gemcitabine + Tozasertib; first compound 0.1 µM): 0.268 | relative viability (Gemcitabine + Foretinib; first compound 0.001 µM): 1.08 | relative viability (Gemcitabine + Foretinib; first compound 0.003162 µM): 1 | relative viability (Gemcitabine + Foretinib; first compound 0.01 µM): 0.712 | relative viability (Gemcitabine + Foretinib; first compound 0.03162 µM): 0.389 | relative viability (Gemcitabine + Foretinib; first compound 0.1 µM): 0.258 | relative viability (Gemcitabine + Pemetrexed; first compound 0.001 µM): 0.821 | relative viability (Gemcitabine + Pemetrexed; first compound 0.003162 µM): 0.698 | relative viability (Gemcitabine + Pemetrexed; first compound 0.01 µM): 0.748 | relative viability (Gemcitabine + Pemetrexed; first compound 0.03162 µM): 0.412 | relative viability (Gemcitabine + Pemetrexed; first compound 0.1 µM): 0.337 | relative viability ([1]; first compound 0.001 µM): 0.484 | relative viability ([1]; first compound 0.003162 µM): 0.527 | relative viability ([1]; first compound 0.01 µM): 0.46 | relative viability ([1]; first compound 0.03162 µM): 0.433 | relative viability ([1]; first compound 0.1 µM): 0.393 | relative viability (Gemcitabine + Dasatinib; first compound 0.001 µM): 0.312 | relative viability (Gemcitabine + Dasatinib; first compound 0.003162 µM): 0.277 | relative viability (Gemcitabine + Dasatinib; first compound 0.01 µM): 0.282 | relative viability (Gemcitabine + Dasatinib; first compound 0.03162 µM): 0.233 | relative viability (Gemcitabine + Dasatinib; first compound 0.1 µM): 0.293 | relative viability (Gemcitabine + Olaparib; first compound 0.001 µM): 0.457 | relative viability (Gemcitabine + Olaparib; first compound 0.003162 µM): 0.401 | relative viability (Gemcitabine + Olaparib; first compound 0.01 µM): 0.277 | relative viability (Gemcitabine + Olaparib; first compound 0.03162 µM): 0.244 | relative viability (Gemcitabine + Olaparib; first compound 0.1 µM): 0.259 | relative viability (Gemcitabine + Luminespib; first compound 0.001 µM): 0.591 | relative viability (Gemcitabine + Luminespib; first compound 0.003162 µM): 0.61 | relative viability (Gemcitabine + Luminespib; first compound 0.01 µM): 0.543 | relative viability (Gemcitabine + Luminespib; first compound 0.03162 µM): 0.376 | relative viability (Gemcitabine + Luminespib; first compound 0.1 µM): 0.331 | relative viability (Gemcitabine + Decitabine; first compound 0.001 µM): 0.694 | relative viability (Gemcitabine + Decitabine; first compound 0.003162 µM): 0.65 | relative viability (Gemcitabine + Decitabine; first compound 0.01 µM): 0.532 | relative viability (Gemcitabine + Decitabine; first compound 0.03162 µM): 0.537 | relative viability (Gemcitabine + Decitabine; first compound 0.1 µM): 0.337 | relative viability (Gemcitabine + OSI-027; first compound 0.001 µM): 0.652 | relative viability (Gemcitabine + OSI-027; first compound 0.003162 µM): 0.629 | relative viability (Gemcitabine + OSI-027; first compound 0.01 µM): 0.563 | relative viability (Gemcitabine + OSI-027; first compound 0.03162 µM): 0.392 | relative viability (Gemcitabine + OSI-027; first compound 0.1 µM): 0.381 | relative viability (Gemcitabine + Phenformin; first compound 0.001 µM): 0.477 | relative viability (Gemcitabine + Phenformin; first compound 0.003162 µM): 0.426 | relative viability (Gemcitabine + Phenformin; first compound 0.01 µM): 0.539 | relative viability (Gemcitabine + Phenformin; first compound 0.03162 µM): 0.281 | relative viability (Gemcitabine + Phenformin; first compound 0.1 µM): 0.315 | relative viability (Gemcitabine + AZD7762; first compound 0.001 µM): 0.473 | relative viability (Gemcitabine + AZD7762; first compound 0.003162 µM): 0.382 | relative viability (Gemcitabine + AZD7762; first compound 0.01 µM): 0.333 | relative viability (Gemcitabine + AZD7762; first compound 0.03162 µM): 0.235 | relative viability (Gemcitabine + AZD7762; first compound 0.1 µM): 0.374 | relative viability (Gemcitabine + Vorinostat; first compound 0.001 µM): 0.732 | relative viability (Gemcitabine + Vorinostat; first compound 0.003162 µM): 0.56 | relative viability (Gemcitabine + Vorinostat; first compound 0.01 µM): 0.452 | relative viability (Gemcitabine + Vorinostat; first compound 0.03162 µM): 0.346 | relative viability (Gemcitabine + Vorinostat; first compound 0.1 µM): 0.289 | relative viability (Gemcitabine + Trametinib; first compound 0.001 µM): 0.862 | relative viability (Gemcitabine + Trametinib; first compound 0.003162 µM): 0.904 | relative viability (Gemcitabine + Trametinib; first compound 0.01 µM): 0.561 | relative viability (Gemcitabine + Trametinib; first compound 0.03162 µM): 0.545 | relative viability (Gemcitabine + Trametinib; first compound 0.1 µM): 0.311

NCI-H1623
relative viability (Gemcitabine; 0.001 µM): 0.743 | relative viability (Gemcitabine; 0.003162 µM): 0.255 | relative viability (Gemcitabine; 0.01 µM): 0.218 | relative viability (Gemcitabine; 0.03162 µM): 0.188 | relative viability (Gemcitabine; 0.1 µM): 0.178 | relative viability (Gemcitabine + Tozasertib; first compound 0.001 µM): 0.333 | relative viability (Gemcitabine + Tozasertib; first compound 0.003162 µM): 0.222 | relative viability (Gemcitabine + Tozasertib; first compound 0.01 µM): 0.173 | relative viability (Gemcitabine + Tozasertib; first compound 0.03162 µM): 0.16 | relative viability (Gemcitabine + Tozasertib; first compound 0.1 µM): 0.17 | relative viability (Gemcitabine + Foretinib; first compound 0.001 µM): 0.741 | relative viability (Gemcitabine + Foretinib; first compound 0.003162 µM): 0.518 | relative viability (Gemcitabine + Foretinib; first compound 0.01 µM): 0.268 | relative viability (Gemcitabine + Foretinib; first compound 0.03162 µM): 0.229 | relative viability (Gemcitabine + Foretinib; first compound 0.1 µM): 0.194 | relative viability (Gemcitabine + Dasatinib; first compound 0.001 µM): 0.485 | relative viability (Gemcitabine + Dasatinib; first compound 0.003162 µM): 0.431 | relative viability (Gemcitabine + Dasatinib; first compound 0.01 µM): 0.175 | relative viability (Gemcitabine + Dasatinib; first compound 0.03162 µM): 0.139 | relative viability (Gemcitabine + Dasatinib; first compound 0.1 µM): 0.143 | relative viability (Gemcitabine + Luminespib; first compound 0.001 µM): 0.43 | relative viability (Gemcitabine + Luminespib; first compound 0.003162 µM): 0.308 | relative viability (Gemcitabine + Luminespib; first compound 0.01 µM): 0.279 | relative viability (Gemcitabine + Luminespib; first compound 0.03162 µM): 0.236 | relative viability (Gemcitabine + Luminespib; first compound 0.1 µM): 0.234 | relative viability (Gemcitabine + OSI-027; first compound 0.001 µM): 0.349 | relative viability (Gemcitabine + OSI-027; first compound 0.003162 µM): 0.29 | relative viability (Gemcitabine + OSI-027; first compound 0.01 µM): 0.254 | relative viability (Gemcitabine + OSI-027; first compound 0.03162 µM): 0.245 | relative viability (Gemcitabine + OSI-027; first compound 0.1 µM): 0.237 | relative viability (Gemcitabine + Phenformin; first compound 0.001 µM): 0.526 | relative viability (Gemcitabine + Phenformin; first compound 0.003162 µM): 0.49 | relative viability (Gemcitabine + Phenformin; first compound 0.01 µM): 0.201 | relative viability (Gemcitabine + Phenformin; first compound 0.03162 µM): 0.369 | relative viability (Gemcitabine + Phenformin; first compound 0.1 µM): 0.164
